# Test results published in ChEMBL document CHEMBL1141998, “Synthesis and evaluation of pyrazolidine derivatives as dipeptidyl peptidase IV (DP-IV) inhibitors” (Bioorg Med Chem Lett, 2005).
# pIC50: −log10 of the molar value.
# Target: Dipeptidyl peptidase 4 (Rattus norvegicus, UniProt P14740)
# Assay: Inhibitory activity against dipeptidyl peptidase IV (DP-IV)
# Chain of Dipeptidyl peptidase 4 (P14740 whole entry): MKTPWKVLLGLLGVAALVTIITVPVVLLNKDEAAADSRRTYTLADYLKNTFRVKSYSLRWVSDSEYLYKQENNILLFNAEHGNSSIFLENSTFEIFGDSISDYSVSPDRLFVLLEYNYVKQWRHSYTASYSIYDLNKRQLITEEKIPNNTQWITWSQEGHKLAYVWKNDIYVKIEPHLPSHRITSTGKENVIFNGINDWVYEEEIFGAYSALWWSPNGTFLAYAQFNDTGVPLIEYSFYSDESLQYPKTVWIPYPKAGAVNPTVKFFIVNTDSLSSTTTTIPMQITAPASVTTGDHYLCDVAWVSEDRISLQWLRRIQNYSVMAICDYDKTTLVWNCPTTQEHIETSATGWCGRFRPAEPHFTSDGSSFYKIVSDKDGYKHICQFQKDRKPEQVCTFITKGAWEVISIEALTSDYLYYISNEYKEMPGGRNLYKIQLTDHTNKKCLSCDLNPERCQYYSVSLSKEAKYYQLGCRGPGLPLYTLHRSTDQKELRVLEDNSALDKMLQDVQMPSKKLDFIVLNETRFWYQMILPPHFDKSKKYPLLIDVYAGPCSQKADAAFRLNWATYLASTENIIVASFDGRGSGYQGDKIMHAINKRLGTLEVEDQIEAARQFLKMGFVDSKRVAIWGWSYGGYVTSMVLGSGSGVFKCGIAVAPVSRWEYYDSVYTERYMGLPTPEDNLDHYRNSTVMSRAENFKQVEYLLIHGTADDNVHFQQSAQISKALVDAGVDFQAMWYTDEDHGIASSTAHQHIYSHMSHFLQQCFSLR
row,pIC50,Structure (SMILES)
1,5.41,CCOC(=O)c1ccc(NC(=O)N2CCCN2C(=O)[C@@H](N)C(C)CC)cc1 (stereo not given in full)
2,5.06,CCOC(=O)c1cccc(NC(=O)N2CCCN2C(=O)[C@@H](N)C(C)CC)c1 (stereo not given in full)
3,4.68,CC(C)C[C@H](N)C(=O)N1CCCN1C(=O)Nc1cccc([N+](=O)[O-])c1
4,4.82,CCC(C)[C@H](N)C(=O)N1CCCN1C(=O)Nc1ccccc1 (stereo not given in full)
5,5.15,CCC(C)[C@H](N)C(=O)N1CCCN1C(=O)Nc1ccc([N+](=O)[O-])cc1 (stereo not given in full)
6,5.39,CCC(C)[C@H](N)C(=O)N1CCCN1C(=O)Nc1cccc(C#N)c1 (stereo not given in full)
7,5.34,O=C(CNC1CCCCC1)N1CCCN1C(=O)Nc1cccc([N+](=O)[O-])c1
8,5.64,CCC(C)[C@H](N)C(=O)N1CCCN1C(=O)Nc1ccc([N+](=O)[O-])c(F)c1 (stereo not given in full)
9,5.25,CCC(C)[C@H](N)C(=O)N1CCCN1C(=O)Nc1ccc(Cl)c(Cl)c1 (stereo not given in full)
10,4.60,CCC(C)[C@H](N)C(=O)N1CCCN1C(=O)Nc1ccc(C(F)(F)F)cc1 (stereo not given in full)
11,5.04,CCC(C)[C@H](N)C(=O)N1CCCN1C(=O)Nc1ccc(C#N)cc1 (stereo not given in full)
12,4.63,CCC(C)[C@H](N)C(=O)N1CCCN1C(=O)OCc1ccccc1 (stereo not given in full)
13,5.81,CCC(C)[C@H](N)C(=O)N1CCCN1C(=O)Nc1cccc([N+](=O)[O-])c1 (stereo not given in full)
14,5.68,CC(C)[C@H](N)C(=O)N1CCCN1C(=O)Nc1cccc([N+](=O)[O-])c1

row,Structure (SMILES),pIC50
1,CCC(C)[C@H](N)C(=O)N1CCCN1C(=O)Nc1ccc([N+](=O)[O-])c(Cl)c1 (stereo not given in full),5.33
